Data as given in PubChem BioAssay (NCI).
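1) Cells in 96-well plates. 2) Compound, 48 h, 5 concentrations. 3) Linear interpolation between surrounding doses. 4) Unreached endpoint = highest concentration. GI50: concentration for 50% inhibition of growth. The concentration for full growth arrest is given as TGI.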

Key:
Test in all cases: NCI-60 cell line screen, 48 h
[1] = tested on: 786-0 renal
[2] = tested on: A498 renal
[3] = tested on: A549 NSCLC
[4] = tested on: ACHN renal
[5] = tested on: BT-549 breast
[6] = tested on: CAKI-1 renal
[7] = tested on: CCRF-CEM leukemia
[8] = tested on: COLO 205 colon
[9] = tested on: DU-145 prostate
[10] = tested on: EKVX NSCLC
[11] = tested on: HCC-2998 colon
[12] = tested on: HCT-116 colon
[13] = tested on: HCT-15 colon
[14] = tested on: HL-60(TB) leukemia
[15] = tested on: HOP-62 NSCLC
[16] = tested on: HOP-92 NSCLC
[17] = tested on: HS 578T breast
[18] = tested on: HT29 colon
[19] = tested on: IGROV1 ovarian
[20] = tested on: K-562 leukemia
[21] = tested on: KM12 colon
[22] = tested on: LOX IMVI melanoma
[23] = tested on: MALME-3M melanoma
[24] = tested on: MCF7 breast
[25] = tested on: MDA-MB-231 breast
[26] = tested on: MDA-MB-435
[27] = tested on: MOLT-4 leukemia
[28] = tested on: NCI-H226 lung
[29] = tested on: NCI-H23 lung
[30] = tested on: NCI-H460 lung
[31] = tested on: NCI-H522 lung
[32] = tested on: NCI/ADR-RES ovarian
[33] = tested on: OVCAR-3 ovarian
[34] = tested on: OVCAR-4 ovarian
[35] = tested on: OVCAR-5 ovarian
[36] = tested on: OVCAR-8 ovarian
[37] = tested on: PC-3 prostate
[38] = tested on: RPMI-8226 leukemia
[39] = tested on: RXF 393 renal
[40] = tested on: SF-268 CNS
[41] = tested on: SF-295 CNS
[42] = tested on: SF-539 CNS
[43] = tested on: SK-MEL-2 melanoma
[44] = tested on: SK-MEL-28 melanoma
[45] = tested on: SK-MEL-5 melanoma
[46] = tested on: SK-OV-3 ovarian
[47] = tested on: SN12C renal
[48] = tested on: SNB-19 CNS
[49] = tested on: SNB-75 CNS
[50] = tested on: SR leukemia
[51] = tested on: SW-620 colon
[52] = tested on: T-47D breast
[53] = tested on: TK-10 renal
[54] = tested on: U251 CNS
[55] = tested on: UACC-257 melanoma
[56] = tested on: UACC-62 melanoma
[57] = tested on: UO-31 renal

Compound `C#CCN(C)CCCOc1ccc(NC(=O)CCCCCCC(=O)NO)cc1Cl` has a GI50 [1] of 3.52 µM, a TGI [1] of 25.7 µM and a GI50 [2] of 1.16 µM. For the same compound, the TGI [2] was 3.04 µM, the GI50 [3] was 2.14 µM and the TGI [3] was 13.6 µM. The GI50 [4] was 2.82 µM, the TGI [4] was 12.7 µM and the GI50 [5] was 3.48 µM. The TGI [5] was 30 µM, the GI50 [6] was 1.65 µM and the TGI [6] was 8.08 µM. For the same compound, the GI50 [7] was 0.375 µM, the TGI [7] was greater than 100 µM and the GI50 [8] was 0.648 µM. It also gave a TGI [8] of 2.45 µM, a GI50 [9] of 1.68 µM and a TGI [9] greater than 100 µM. The GI50 [10] was 3.47 µM, the TGI [10] was greater than 100 µM and the GI50 [11] was 1.47 µM. For the same compound, the TGI [11] was 4.23 µM, the GI50 [12] was 0.437 µM and the TGI [12] was 6.26 µM. For the same compound, the GI50 [13] was 5.03 µM, the TGI [13] was greater than 100 µM and the GI50 [14] was 0.589 µM. It also gave a TGI [14] greater than 100 µM, a GI50 [15] of 1.85 µM and a TGI [15] of 24 µM. The GI50 [16] was 0.725 µM, the TGI [16] was 4.56 µM and the GI50 [17] was 1.15 µM. The TGI [17] was 7.31 µM, the GI50 [18] was 1.42 µM and the TGI [18] was 43 µM. It also gave a GI50 [19] of 1.23 µM, a TGI [19] of 4.34 µM and a GI50 [20] of 0.549 µM. The TGI [20] was greater than 100 µM, the GI50 [21] was 1.91 µM and the TGI [21] was 15.9 µM. For the same compound, the TGI [22] was 0.12 µM, the GI50 [23] was 0.373 µM and the TGI [23] was 28.4 µM. It also gave a GI50 [24] of 0.813 µM, a TGI [24] of 17.4 µM and a GI50 [25] of 1.83 µM. It also gave a TGI [25] of 16.4 µM, a GI50 [26] of 0.835 µM and a TGI [26] of 5.97 µM. It also gave a GI50 [27] of 0.338 µM, a TGI [27] greater than 100 µM and a GI50 [28] of 4.13 µM. The TGI [28] was 30.6 µM, the GI50 [29] was 2.44 µM and the TGI [29] was 18.9 µM. The GI50 [30] was 1.1 µM, the TGI [30] was greater than 100 µM and the GI50 [31] was 0.431 µM. It also gave a TGI [31] of 8.2 µM, a GI50 [32] of 5.41 µM and a TGI [32] greater than 100 µM. For the same compound, the GI50 [33] was 1.48 µM, the TGI [33] was 13.2 µM and the GI50 [34] was 4.41 µM. The TGI [34] was greater than 100 µM, the GI50 [35] was 1.7 µM and the TGI [35] was 45.7 µM. For the same compound, the GI50 [36] was 0.793 µM, the TGI [36] was greater than 100 µM and the GI50 [37] was 1.53 µM. For the same compound, the TGI [37] was greater than 100 µM, the GI50 [38] was 1.05 µM and the TGI [38] was 6.78 µM. The GI50 [39] was 0.272 µM, the TGI [39] was 1.11 µM and the GI50 [40] was 2.92 µM. For the same compound, the TGI [40] was 16.4 µM, the GI50 [41] was 1.68 µM and the TGI [41] was 4.71 µM. For the same compound, the GI50 [42] was 1.66 µM, the TGI [42] was 17 µM and the GI50 [43] was 3.05 µM. The TGI [43] was 21.8 µM, the GI50 [44] was 1.44 µM and the TGI [44] was 11.3 µM. For the same compound, the GI50 [45] was 0.853 µM, the TGI [45] was 2.43 µM and the GI50 [46] was 1.54 µM. For the same compound, the TGI [46] was 12.6 µM, the GI50 [47] was 2.78 µM and the TGI [47] was greater than 100 µM. For the same compound, the GI50 [48] was 2.26 µM, the TGI [48] was 17.7 µM and the GI50 [49] was 0.606 µM. It also gave a TGI [49] of 32.1 µM, a GI50 [50] of 0.53 µM and a TGI [50] greater than 100 µM. The GI50 [51] was 0.698 µM, the TGI [51] was 4.31 µM and the GI50 [52] was 0.608 µM. The TGI [52] was greater than 100 µM, the GI50 [53] was 1.41 µM and the TGI [53] was 11 µM. For the same compound, the GI50 [54] was 1.41 µM, the TGI [54] was 7.21 µM and the GI50 [55] was 0.587 µM. For the same compound, the TGI [55] was 13.4 µM, the GI50 [56] was 0.57 µM and the TGI [56] was 4.18 µM. The GI50 [57] was 1.5 µM and the TGI [57] was 7.04 µM.
